Assays:
[1] = molecular target: T1, human cyclin-dependent kinase 2 (Cdk2) (Homo sapiens, UniProt P24941); experiment: Kinetic thiol consumption assay with wild type Cdk2 (C177); assay type: binding; set-up: key to Rate enhancement, Cdk2 WT: k(Cdk2) divided by k(model thiol); Rate constant with Cdk2 (k(Cdk2)): unit not given here; conditions: for Rate constant with Cdk2 (k(Cdk2)): 500 μM ligand, 5 μM thiol, phosphate buffer pH 8; for Rate enhancement, Cdk2 WT: no additional mutations; for Rate constant with Cdk2 WT: Protein: Cdk2, cysteine position WT, in h^-1; for k(Cdk2)/k(Cdk2_mut) rate enhancement: model thiol Cdk2[C177A, F80C, K278C]; for k(Cdk2)/k(GSH) rate enhancement: model thiol glutathione
T1 construct: poly-histidine; made in house; host or cells: E. coli
Outline: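 Thiol 5 μM (Cdk2 or model thiol), degassed phosphate buffer pH 8, TCEP beads 2% v/v. Plates incubated 1 h RT, ex/em 380/470 nm. First-order decay fit → rate constant; ratio Cdk2/model thiol = rate enhancement.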

Cdk2(R122C) (C177A) = molecular target: T2, Cdk2(R122C) (C177A) (Homo sapiens, UniProt P24941, C177A/R122C); experiment: Kinetic thiol consumption assay with Cdk2 mutant R122C; assay type: binding; set-up: key to Rate enhancement, Cdk2 R122C: rate constant with Cdk2 ÷ rate constant with model thiol (fold); conditions: additional mutation C177A; for Rate constant with Cdk2 R122C: Protein: Cdk2, cysteine position R122C, in h-1
T2 construct: poly-histidine; made in house; host or cells: E. coli
Outline: (§1)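 5 μM thiol, degassed phosphate pH 8, 2% v/v immobilized TCEP beads; 1 h RT; fluorescence ex 380/em 470 nm; normalized vs DMSO/thiol-only; first-order exponential decay fit → rate constant; Cdk2 k / model-thiol k = rate enhancement per acrylamide.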

[2] = Kinetic thiol consumption assay with model thiol glutathione; assay type: physicochemical; set-up: Rate constant with glutathione (k(GSH)): unit not given here; conditions: for Rate constant with glutathione (k(GSH)): 500 μM ligand, 5 μM thiol, phosphate buffer pH 8; for Rate constant with Glutathione: Protein: Glutathione, cysteine position NA, in h-1
Outline: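 GSH 5 μM, degassed phosphate buffer pH 8, TCEP beads 2% v/v; acrylamide added; RT, 1 h; fluorescence ex/em 380/470 nm; normalized to DMSO/thiol control; k from first-order exponential decay fit.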

Cdk2(T182C) (C177A) = molecular target: T3, Cdk2(T182C) (C177A) (Homo sapiens, UniProt P24941, C177A/T182C); experiment: Kinetic thiol consumption assay with Cdk2 mutant T182C; assay type: binding; set-up: key to Rate enhancement, Cdk2 T182C: rate constant with Cdk2 ÷ rate constant with model thiol (fold); conditions: additional mutation C177A; for Rate constant with Cdk2 T182C: Protein: Cdk2, cysteine position T182C, in h^-1
T3 construct: poly-histidine; made in house; host or cells: E. coli
Outline: as §1

Cdk2(S276C) (C177A) = molecular target: T4, Cdk2(S276C) (C177A) (Homo sapiens, UniProt P24941, C177A/S276C); experiment: Kinetic thiol consumption assay with Cdk2 mutant S276C; assay type: binding; set-up: key to Rate enhancement, Cdk2 S276C: rate constant with Cdk2 ÷ rate constant with model thiol (fold); conditions: additional mutation C177A; for Rate constant with Cdk2 S276C: Protein: Cdk2, cysteine position S276C, in h^-1
T4 construct: poly-histidine; made in house; host or cells: E. coli
Outline: as §1

Cdk2(H71C) (C177A) = molecular target: T5, Cdk2(H71C) (C177A) (Homo sapiens, UniProt P24941, C177A/H71C); experiment: Kinetic thiol consumption assay with Cdk2 mutant H71C; assay type: binding; set-up: key to Rate enhancement, Cdk2 H71C: rate constant with Cdk2 ÷ rate constant with model thiol (fold); conditions: additional mutation C177A
T5 construct: poly-histidine; made in house; host or cells: E. coli
Outline: as §1

Cdk2(S181C) (C177A) = molecular target: T6, Cdk2(S181C) (C177A) (Homo sapiens, UniProt P24941, C177A/S181C); experiment: Kinetic thiol consumption assay with Cdk2 mutant S181C; assay type: binding; set-up: key to Rate enhancement, Cdk2 S181C: rate constant with Cdk2 ÷ rate constant with model thiol (fold); conditions: additional mutation C177A; for Rate constant with Cdk2 S181C: Protein: Cdk2, cysteine position S181C, in h^-1
T6 construct: poly-histidine; made in house; host or cells: E. coli
Outline: as §1

Cdk2(C177A, F80C) = molecular target: T7, Cdk2(C177A, F80C) (Homo sapiens, UniProt P24941, C177A/F80C); experiment: Kinetic thiol consumption assay with Cdk2 mutant F80C, incl. kobs versus concentration (Kd, k2); assay type: binding; set-up: key to Rate enhancement, Cdk2 F80C: Cdk2 rate constant divided by model-thiol rate constant; conditions: additional mutation C177A; for Rate constant with Cdk2 F80C: Protein: Cdk2, cysteine position F80C, in h^-1
T7 construct: poly-histidine; made in house; host or cells: E. coli
Outline: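 His-tagged Cdk2(C177A/F80C) from E. coli or model thiol, 5 μM in degassed phosphate buffer pH 8 with TCEP beads, reacted with acrylamide ligands; fluorescence (ex/em 380/470 nm) normalized to DMSO control and fitted to first-order decay for kobs. Kd and k2 obtained from hyperbolic fit of kobs versus ligand concentration.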

Cdk2(N272C) (C177A) = molecular target: T8, Cdk2(N272C) (C177A) (Homo sapiens, UniProt P24941, C177A/N272C); experiment: Kinetic thiol consumption assay with Cdk2 mutant N272C; assay type: binding; set-up: key to Rate enhancement, Cdk2 N272: rate constant with Cdk2 ÷ rate constant with model thiol (fold); conditions: for Rate enhancement, Cdk2 N272: Cdk2 N272, additional mutation C177A; for Rate constant with Cdk2 N272C: Protein: Cdk2, cysteine position N272C, additional mutation C177A, in h^-1
T8 construct: poly-histidine; made in house; host or cells: E. coli
Outline: as §1

Cdk2[C177A, F80C, K278C] = molecular target: T9, Cdk2[C177A, F80C, K278C] (Homo sapiens, UniProt P24941, C177A/F80C/K278C); experiment: Kinetic thiol consumption assay with mutant Cdk2 as model thiol; assay type: binding; set-up: unit not given here; conditions: 500 μM ligand, 5 μM thiol, phosphate buffer pH 8
T9 construct: poly-histidine; made in house; host or cells: E. coli
Outline: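 Model thiol: His-tagged human Cdk2 C177A/F80C/K278C (two engineered surface cysteines), E. coli-expressed, 5 μM in degassed phosphate buffer pH 8 with immobilized TCEP beads (2% v/v). Fluorescence (ex/em 380/470 nm) followed over time at room temperature, normalized to DMSO/thiol control. First-order decay fit gives rate constants.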

SMILES	Rate constant with Cdk2 (k(Cdk2)) [1]	Rate enhancement, Cdk2 WT [1]	Rate constant with Cdk2 WT [1]	k(Cdk2)/k(Cdk2_mut) rate enhancement [1]	k(Cdk2)/k(GSH) rate enhancement [1]	Rate enhancement, Cdk2 R122C (Cdk2(R122C) (C177A))	Rate constant with Cdk2 R122C (Cdk2(R122C) (C177A))	Rate constant with glutathione (k(GSH)) [2]	Rate constant with Glutathione [2]	Rate enhancement, Cdk2 T182C (Cdk2(T182C) (C177A))	Rate constant with Cdk2 T182C (Cdk2(T182C) (C177A))	Rate enhancement, Cdk2 S276C (Cdk2(S276C) (C177A))	Rate constant with Cdk2 S276C (Cdk2(S276C) (C177A))	Rate enhancement, Cdk2 H71C (Cdk2(H71C) (C177A))	Rate enhancement, Cdk2 S181C (Cdk2(S181C) (C177A))	Rate constant with Cdk2 S181C (Cdk2(S181C) (C177A))	Rate enhancement, Cdk2 F80C (Cdk2(C177A, F80C))	Rate constant with Cdk2 F80C (Cdk2(C177A, F80C))	Rate enhancement, Cdk2 N272 (Cdk2(N272C) (C177A))	Rate constant with Cdk2 N272C (Cdk2(N272C) (C177A))	other results
C=CC(=O)N1CC2CC2C1 (stereo not shown) [CA-211]	0.00368	0.3928	0.003681	2.144	0.6839	0.3837	0.003595	0.00538	0.00937	2.18	0.02043	0.4691	0.004395	0	2.498	0.02341	0.2496	0.002339	2.443	0.02289	Rate constant with Cdk2[C177A, F80C, K278C] (k(Cdk2_mut)) (Cdk2[C177A, F80C, K278C]): 0.00172
C=CC(=O)Nc1cccc(C(=O)c2ccccc2)c1 [CA-218]	0.03272	2.55	0.03272	0.2745	2.536	0.6834	0.008768	0.0129	0.01283	9.969	0.1279	2.167	0.0278	0.809	1.116	0.01432	11.9	0.1527	0.3525	0.004522	Rate constant with Cdk2 H71C (Cdk2(H71C) (C177A); Protein: Cdk2, cysteine position H71C, in h^-1): 0.01038; Rate constant with Cdk2[C177A, F80C, K278C] (k(Cdk2_mut)) (Cdk2[C177A, F80C, K278C]): 0.1192

— US11415579B2, “Assay for measuring a rate of reaction between a target and a ligand candidate” (Imperial College Innovations Ltd., priority 2016, dated 2022)
